Experimental data: ChEMBL document CHEMBL1145738, “Peptidyl aldehyde inhibitors of calpain incorporating P2-proline mimetics” (Bioorg Med Chem Lett, 2003)
pKi: −log10 of the molar value. Non-standard residues stand in square brackets, D forms with d. Residues, ends and D or L forms follow the SMILES beside them. ξ: configuration not given here. *: point of attachment. Tos = Cc1ccc(S(=O)(=O)*)cc1; ξF = NC(Cc1ccccc1)C(=O)O; Pip = O=C(O)[CH]1CCCCN1; Aze = O=C(O)[CH]1CCN1

Experiments:
[1] = target: T1, Calpain small subunit 1 (Sus scrofa, UniProt P04574); experiment: Compound tested for inhibition of porcine Calpain 1
T1 sequence (P04574 whole entry): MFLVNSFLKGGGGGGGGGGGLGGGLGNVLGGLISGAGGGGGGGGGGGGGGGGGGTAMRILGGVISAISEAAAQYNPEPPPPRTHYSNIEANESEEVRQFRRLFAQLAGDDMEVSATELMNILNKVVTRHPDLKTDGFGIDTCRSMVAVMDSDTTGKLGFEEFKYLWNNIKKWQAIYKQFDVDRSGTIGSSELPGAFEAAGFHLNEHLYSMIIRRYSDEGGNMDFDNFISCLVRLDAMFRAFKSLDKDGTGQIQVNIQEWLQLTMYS

[2] = target: T1, Calpain small subunit 1; experiment: Compound tested for inhibition of porcine calpain I
[3] = target: T2, Cathepsin B (Homo sapiens, UniProt P07858); experiment: Compound tested for inhibition of human liver cathepsin B
[4] = target: T2, Cathepsin B; experiment: (§1) Selectivity ratio of cathepsin B to calpain I
[5] = target: T2, Cathepsin B; experiment: Compound tested for inhibition of human liver Cathepsin B
[6] = as §1

pKi [1]	pKi [2]	pKi [3]	Selectivity ratio [4]	pKi [5]	Selectivity ratio [6]	Structure (SMILES)
7.10	–	–	–	4.92	151	Cc1ccc(S(=O)(=O)N2CCCC2C(=O)NC(C=O)Cc2ccccc2)cc1 (stereo not drawn) (Tos-Pro-Phe-aldehyde; configuration not given here)
–	6.27	5.28	10	–	–	Cc1ccc(S(=O)(=O)N2CCCCC2C(=O)NC(C=O)Cc2ccccc2)cc1 (stereo not drawn) (Tos-[Pip]-Phe-aldehyde; configuration not given here)

The next lines start with the compound.

Structure (SMILES)	pKi [1]	pKi [2]	pKi [3]	Selectivity ratio [4]	pKi [5]	Selectivity ratio [6]
Cc1ccc(S(=O)(=O)N2CCSC2C(=O)NC(C=O)Cc2ccccc2)cc1 (stereo not drawn)	7.15	–	–	–	–	–
Cc1ccc(S(=O)(=O)N[C@@H](CC(C)C)C(=O)NC(C=O)Cc2ccccc2)cc1 (stereo partly drawn) (Tos-Leu-[ξF]-aldehyde)	–	7.70	7.15	4	–	–
Cc1ccc(S(=O)(=O)N2CCC2C(=O)NC(C=O)Cc2ccccc2)cc1 (stereo not drawn) (Tos-[Aze]-Phe-aldehyde; configuration not given here)	6.60	–	–	–	5.56	11
